Measured values as given in ChEMBL document CHEMBL4251633, “Design, synthesis, biological evaluation and cocrystal structures with tubulin of chiral β-lactam bridged combretastatin A-4 analogues as potent antitumor agents” (Eur J Med Chem, 2018).

Key:
MDA-MB-231 = experiment: Antiproliferative activity against human MDA-MB-231 cells after 48 hrs by MTT assay; format: functional, cell-based; details: MDA-MB-231, 48 h
SK-OV-3 = experiment: Antiproliferative activity against human SKOV3 cells after 48 hrs by MTT assay; details: SK-OV-3, 48 h
HeLa = experiment: Antiproliferative activity against human HeLa cells after 48 hrs by MTT assay; format: functional, cell-based
A2780 = experiment: cells; details: Homo sapiens, A2780, 48 h
Description: Antiproliferative activity against human A2780 cells after 48 hrs by MTT assay

| Structure (SMILES) | IC50 (MDA-MB-231) [nM] | IC50 (SK-OV-3) [nM] | IC50 (HeLa) [nM] | IC50 (A2780) [nM] |
| --- | --- | --- | --- | --- |
| C=CC(=O)Nc1cc([C@H]2C(=C)C(=O)N2c2cc(OC)c(OC)c(OC)c2)ccc1OC | 34 | 63 | 125 | 65 |
| COc1ccc([C@H]2[C@H](NC(C)=O)C(=O)N2c2cc(OC)c(OC)c(OC)c2)cc1O | 47 | 32 | 35 | 33 |
| C=C1C(=O)N(c2cccc(OC)c2)[C@H]1c1ccc(OC)c(O)c1 | 1370 | 1390 | 2170 | 677 |
| C=C1C(=O)N(c2cc(OC)c(OC)c(OC)c2)[C@H]1c1cccc(O)c1 | 6640 | 14500 | 15000 | 10500 |
| COc1ccc([C@H]2[C@H](C)C(=O)N2c2cc(OC)c(OC)c(OC)c2)cc1N | 17 | 8 | 35 | 21 |
| C=C1C(=O)N(c2cc(OC)c(OC)c(OC)c2)[C@H]1c1ccc(C)cc1 | 193 | 265 | 209 | 127 |
| C=C1C(=O)N(c2cc(OC)c(OC)c(OC)c2)[C@H]1c1ccc(OC)c(N)c1 | 40 | 36 | 32 | 31 |
| C=C1C(=O)N(c2cc(OC)c(OC)c(OC)c2)[C@H]1c1ccc(OC)c(OCc2ccccc2)c1 | > 20000 | > 20000 | > 20000 | > 20000 |
| C=C1C(=O)N(c2cc(OC)c(OC)c(OC)c2)[C@H]1c1ccc(OC)c(Cl)c1 | 512 | 341 | 371 | 316 |
| C=C1C(=O)N(c2cc(OC)c(OC)c(OC)c2)[C@H]1c1ccc(OC)c(F)c1 | 112 | 136 | 131 | 121 |
| C=C1C(=O)N(c2cc(OC)c(OC)c(OC)c2)[C@H]1c1ccccc1 | > 20000 | > 20000 | > 20000 | > 20000 |
| COc1ccc([C@H]2[C@H](Br)C(=O)N2c2cc(OC)c(OC)c(OC)c2)cc1O | 10 | 9 | 13 | 8 |
| COc1ccc([C@@H]2[C@H](C)C(=O)N2c2cc(OC)c(OC)c(OC)c2)cc1O | 5140 | 3270 | 3920 | 5750 |
| COc1ccc([C@H]2[C@@H](C)C(=O)N2c2cc(OC)c(OC)c(OC)c2)cc1O | 31 to 63 | 31 to 63 | 31 to 63 | 31 to 63 |
| COc1ccc([C@H]2/C(=C/c3ccc(C(C)(C)C)cc3)C(=O)N2c2cc(OC)c(OC)c(OC)c2)cc1O | > 20000 | > 20000 | > 20000 | > 20000 |
| COc1ccc([C@H]2[C@H](NC(=O)c3ccccc3)C(=O)N2c2cc(OC)c(OC)c(OC)c2)cc1O | 47 | 45 | 24 | 27 |
| COC[C@@]1(OC)C(=O)N(c2cc(OC)c(OC)c(OC)c2)[C@H]1c1ccc(OC)c(O)c1 | > 20000 | > 20000 | > 20000 | 17700 |
| C=C1C(=O)N(c2cc(OC)c(OC)c(OC)c2)[C@H]1c1ccc(OC)c(OC(C)=O)c1 | 133 | 104 | 116 | 81 |
| COc1ccc([C@H]2[C@@H](OC(=O)CCC(=O)O)C(=O)N2c2cc(OC)c(OC)c(OC)c2)cc1O | 102 | 210 | 178 | 79 |
| COc1ccc([C@H]2[C@H](CO)C(=O)N2c2cc(OC)c(OC)c(OC)c2)cc1N | 27 | 8 | 44 | 35 |

| Structure (SMILES) | IC50 (MDA-MB-231) [nM] | IC50 (SK-OV-3) [nM] | IC50 (HeLa) [nM] | IC50 (A2780) [nM] |
| --- | --- | --- | --- | --- |
| COc1ccc([C@H]2[C@@H](CO)C(=O)N2c2cc(OC)c(OC)c(OC)c2)cc1N | 107 | 54 | 328 | 327 |
| C=C1C(=O)N(c2ccccc2)[C@H]1c1ccccc1 | > 20000 | > 20000 | > 20000 | > 20000 |
| COc1ccc([C@H]2[C@@H](C)C(=O)N2c2cc(OC)c(OC)c(OC)c2)cc1N | 63 | 59 | 215 | 81 |
| C=C1C(=O)N(c2cc(OC)c(OC)c(OC)c2)[C@H]1c1ccc(OC)c(OCC)c1 | 958 | 1140 | 2030 | 854 |
| C=C1C(=O)N(c2cc(OC)c(OC)c(OC)c2)[C@H]1c1ccc(OC)c(OS(=O)(=O)c2ccc(C)cc2)c1 | 12800 | 12100 | 17800 | > 20000 |
| C=C1C(=O)N(c2cc(OC)c(OC)c(OC)c2)[C@H]1c1cc(OC)c(OC)c(OC)c1 | 784 | 365 | 547 | 215 |
| COc1ccc([C@H]2/C(=C/c3ccccc3)C(=O)N2c2cc(OC)c(OC)c(OC)c2)cc1O | 3160 | 2990 | 4730 | 2540 |
| COc1ccc([C@@H]2CC(=O)N2c2cc(OC)c(OC)c(OC)c2)cc1O | 28 | 24 | 30 | 22 |
| COc1ccc([C@H]2[C@H](NS(C)(=O)=O)C(=O)N2c2cc(OC)c(OC)c(OC)c2)cc1O | 254 | 231 | 192 | 164 |
| COc1ccc([C@@H]2N(c3cc(OC)c(OC)c(OC)c3)C(=O)[C@]2(O)CO)cc1O | 2320 | 2070 | 2100 | 1540 |
| COc1ccc([C@@H]2[C@@H](C)C(=O)N2c2cc(OC)c(OC)c(OC)c2)cc1O | 1080 | 650 | 807 | 771 |
| C=C1C(=O)N(c2cc(OC)c(OC)c(OC)c2)[C@H]1c1ccc(OC)cc1 | > 20000 | > 20000 | > 20000 | > 20000 |
| C=C1C(=O)N(c2ccc(OC)cc2)[C@H]1c1ccc(OC)c(O)c1 | > 20000 | > 20000 | > 20000 | > 20000 |
| C=C1C(=O)N(c2cc(OC)c(OC)c(OC)c2)[C@H]1c1ccc(OC)c(OC(C)C)c1 | 15900 | 18000 | > 20000 | 11300 |
| C=C1C(=O)N(c2cc(OC)c(OC)c(OC)c2)[C@H]1c1ccc(OC)c(OCCC)c1 | 5620 | 5260 | 6890 | 3420 |
| C=C1C(=O)N(c2cc(OC)c(OC)c(OC)c2)[C@H]1c1ccc(OC)c(O[Si](C)(C)C(C)(C)C)c1 | 560 | 414 | 657 | 287 |
| C=C1C(=O)N(c2cc(OC)c(OC)c(OC)c2)[C@H]1c1ccc(OC)c(OC)c1 | 1020 | 2260 | 3160 | 854 |
| COc1ccc([C@H]2[C@@H](OC)C(=O)N2c2cc(OC)c(OC)c(OC)c2)cc1O | 1960 | 2210 | 1790 | 1220 |
| COc1ccc([C@H]2[C@H](n3cc(CO)nn3)C(=O)N2c2cc(OC)c(OC)c(OC)c2)cc1O | 28 | 83 | 33 | 15 |
| C=C1C(=O)N(c2cc(OC)cc(OC)c2)[C@H]1c1ccc(OC)c(O)c1 | 125 | 175 | 295 | 112 |
